Data set [1] is described as follows: Acute toxicity test by intraperitoneal administration. The following applies: mouse, in vivo, ip, ICR male mice, 1 week observation. As to the method:
Acute toxicity test was conducted by intraperitoneal administration using a group of twenty ICR male mice (4 weeks old, body weight around 20 g).
LD50 value was calculated by the Richfield-Willcokson method from a lethal ratio observing the fate of mice during 1 week after administration of a test compound.

A further data set can be described thus: Water solubility. Format: physicochemical.
The nature of data set [2]: Antitumor activity for L1210 (life prolonging effect, mouse leukemia transplanted intraperitoneally). Format: in vivo. The following applies: mouse, in vivo, ip; numerator of therapeutic index; i.p. total dose; read-out: Maximum tolerable dose. As to the method: (§1) 5×10^5 cells of mouse leukemia L1210 were transplanted intraperitoneally to a group of six female CDF1 mice (7 weeks old, body weight 17-19 g). The test compound was administered intraperitoneally on day 1, 5 and 9 and its life prolonging effect was observed.
(§2) In a case of the administration of a test compound as an acid addition salt the test compound was dissolved in water. The total administration amount was 1.56 mg/kg-400 mg/kg. The antitumor activity was expressed by the value (T/C%) wherein T denotes the mean survival days in the drug administered group and C denotes those in the non administered group. In case of equal to or more than 125% the drug is considered to be effective.

Another data set deals with mouse leukemia L1210. The description is as above. It is filed as in vivo. Conditions: for minimal effective dose: Mus musculus, L1210, ip, denominator of therapeutic index, i.p. total dose, read-out: Minimum effective dose; for 40-day survivors: at optimum dose, group of six female CDF1 mice; for Therapeutic Index (Maximum tolerable dose/Minimum effective dose): i.p., L1210, CDF1 mice. How it is done:
as §1, §2

In brackets after ≈: the same amount, converted by molar mass.

Take `CCc1c2c(nc3cc(F)ccc13)-c1cc([C@@](O)(CC)C(=O)NCCN(C)C)c(COC(=O)c3ccc(OC)cc3)c(=O)n1C2` [Compound C11]: the LD50 (usually the dose expected to kill half of the subjects tested) at 168 h in data set [1] is 146 mg/kg. In the data set “Water solubility”, the solubility – broadly, the dissolved amount per volume that the medium holds – is 8 mg/mL (≈ 13 mM). Besides, the MTD in data set [2] amounted to 50 mg/kg. In addition, in the data set with mouse leukemia L1210, the minimal effective dose was found to be 6.25 mg/kg, the 40-day survivors is 0/6 and the “Therapeutic Index (Maximum tolerable dose/Minimum effective dose)” value was 8.

Turning to `CCc1c2c(nc3cc(Cl)ccc13)-c1cc([C@@](O)(CC)C(=O)NCCN(C)C)c(COC(=O)CCSC)c(=O)n1C2` [Compound C12], the LD50 at 168 h in data set [1] is 284 mg/kg. Further, in “Water solubility”, the solubility is above 64 mg/mL. The MTD in data set [2] turned out to be 25 mg/kg. In the data set with mouse leukemia L1210, the minimal effective dose stood at 6.25 mg/kg and the 40-day survivors is listed as 1/6.

The compound `CCc1c2c(nc3cc(F)c(F)cc13)-c1cc([C@@](O)(CC)C(=O)NCCN(C)C)c(COC(=O)c3ccc(OC)cc3)c(=O)n1C2` [Compound C16] came in with an LD50 at 168 h in data set [1] of 65.6 mg/kg. Further, the concentration in solution in “Water solubility” (solubility) was 6 mg/mL (≈ 9.45 mM). Besides, the MTD in data set [2] amounted to 12.5 mg/kg. Further, in the data set on mouse leukemia L1210, the minimal effective dose is 6.25 mg/kg, the 40-day survivors is reported as 0/6 and the “Therapeutic Index (Maximum tolerable dose/Minimum effective dose)” value turned out to be 2.

Consider `CCC(=O)OCc1c([C@@](O)(CC)C(=O)NCCN(C)C)cc2n(c1=O)Cc1c-2nc2cc(Cl)c(Cl)cc2c1CC` [Compound C17], for which the LD50 at 168 h in data set [1] was 112 mg/kg. The solubility in the data set “Water solubility” was above 64 mg/mL. Besides, the MTD in data set [2] came to 6.25 mg/kg. Moreover, in the data set on mouse leukemia L1210, the minimal effective dose is 1.56 mg/kg, the 40-day survivors was 2/6 and the “Therapeutic Index (Maximum tolerable dose/Minimum effective dose)” value is listed as 4.

Turning to `CCCC(=O)OCc1c([C@@](O)(CC)C(=O)NCCN(C)C)cc2n(c1=O)Cc1c-2nc2cc(Cl)c(Cl)cc2c1CC` [Compound C18], the median lethal dose (LD50) at 168 h in data set [1] is 92.3 mg/kg. In the data set “Water solubility”, this compound returned a solubility of 35 mg/mL (≈ 58 mM). In data set [2], the MTD stood at 3.13 mg/kg. Further, in the data set with mouse leukemia L1210, the minimal effective dose is below 1.56 mg/kg, the 40-day survivors is given as 0/6 and the “Therapeutic Index (Maximum tolerable dose/Minimum effective dose)” value is above 2.

Compound `CCc1c2c(nc3cc(Cl)c(Cl)cc13)-c1cc([C@@](O)(CC)C(=O)NCCN(C)C)c(COC(=O)CCSC)c(=O)n1C2` [Compound C19] had an LD50 at 168 h in data set [1] of 94.8 mg/kg. In “Water solubility”, this compound showed a solubility of 24 mg/mL (≈ 37.8 mM). In addition, the MTD in data set [2] was found to be 3.13 mg/kg. Further, in the data set with mouse leukemia L1210, the minimal effective dose was below 1.56 mg/kg, the 40-day survivors is 0/6 and the “Therapeutic Index (Maximum tolerable dose/Minimum effective dose)” value is above 2.

On to `CCC(=O)OCc1c([C@@](O)(CC)C(=O)NCCN(C)C)cc2n(c1=O)Cc1c-2nc2cc(F)c(OC)cc2c1CC` [Compound C20], for which, in data set [1], the LD50 at 168 h amounted to 84.5 mg/kg. For the same compound, the solubility in “Water solubility” was above 60 mg/mL. Besides, the MTD in data set [2] amounted to 3.13 mg/kg. In the data set with mouse leukemia L1210, the minimal effective dose was below 1.56 mg/kg, the 40-day survivors is 0/6 and the “Therapeutic Index (Maximum tolerable dose/Minimum effective dose)” value is given as above 2.

In data set [1], `CCCC(=O)OCc1c([C@@](O)(CC)C(=O)NCCN(C)C)cc2n(c1=O)Cc1c-2nc2cc(F)c(OC)cc2c1CC` [Compound C21] came in with an LD50 at 168 h of 124 mg/kg. In addition, in the data set “Water solubility”, the solubility is above 63 mg/mL. Besides, the MTD in data set [2] was 3.13 mg/kg. For the same compound, in the data set on mouse leukemia L1210, the minimal effective dose is below 1.56 mg/kg, the 40-day survivors is reported as 0/6 and the “Therapeutic Index (Maximum tolerable dose/Minimum effective dose)” value was above 2.

In data set [1], `CCC(=O)OCc1c([C@@](O)(CC)C(=O)NCCN(C)C)cc2n(c1=O)Cc1c-2nc2cc(F)c(C)cc2c1CC` [Compound C23] gave an LD50 at 168 h of 184 mg/kg. In addition, the concentration in solution in the data set “Water solubility” (solubility) was 20 mg/mL (≈ 36.2 mM). Moreover, in data set [2], the MTD was determined as 12.5 mg/kg. In the data set on mouse leukemia L1210, the minimal effective dose is below 1.56 mg/kg, the 40-day survivors is given as 0/6 and the “Therapeutic Index (Maximum tolerable dose/Minimum effective dose)” value is above 8.

`CCCC(=O)OCc1c([C@@](O)(CC)C(=O)NCCN(C)C)cc2n(c1=O)Cc1c-2nc2cc(F)c(C)cc2c1CC` [Compound C24]: the LD50 at 168 h in data set [1] was 203 mg/kg. For the same compound, in “Water solubility”, the solubility was 42 mg/mL (≈ 74.1 mM). Besides, in data set [2], the MTD was 25 mg/kg. Besides, in the data set on mouse leukemia L1210, the minimal effective dose stood at 1.56 mg/kg, the 40-day survivors was 1/6 and the “Therapeutic Index (Maximum tolerable dose/Minimum effective dose)” value is above 16.

`CCc1c2c(nc3cc(F)c(C)cc13)-c1cc([C@@](O)(CC)C(=O)NCCN(C)C)c(COC(=O)CCSC)c(=O)n1C2` [Compound C25] registered an LD50 at 168 h in data set [1] of 154 mg/kg. This compound came in with a solubility in “Water solubility” above 63 mg/mL. In addition, the MTD in data set [2] was 12.5 mg/kg. For the same compound, in the data set with mouse leukemia L1210, the minimal effective dose was below 1.56 mg/kg, the 40-day survivors is reported as 1/6 and the “Therapeutic Index (Maximum tolerable dose/Minimum effective dose)” value is recorded as above 8.

`CCc1c2c(nc3cc(F)c(C)cc13)-c1cc([C@@](O)(CC)C(=O)NCCN(C)C)c(COC(=O)c3ccc(OC)cc3)c(=O)n1C2` [Compound C26] came in with an LD50 at 168 h in data set [1] of 113 mg/kg. In “Water solubility”, this compound gave a solubility of 9 mg/mL (≈ 14.3 mM). Besides, in data set [2], the MTD was 50 mg/kg. In the data set with mouse leukemia L1210, the minimal effective dose came to 12.5 mg/kg, the 40-day survivors is given as 0/6 and the “Therapeutic Index (Maximum tolerable dose/Minimum effective dose)” value is reported as above 4.

In data set [1], `CCC(=O)OCc1c([C@@](O)(CC)C(=O)NCCN(C)C)cc2n(c1=O)Cc1c-2nc2ccc(O)cc2c1CC` [Compound C28] yielded an LD50 at 168 h of 341 mg/kg. The compound also returned a solubility in the data set “Water solubility” above 56 mg/mL. Moreover, the MTD in data set [2] worked out at 200 mg/kg. In addition, in the data set with mouse leukemia L1210, the minimal effective dose stood at 12.5 mg/kg, the 40-day survivors was 0/6 and the “Therapeutic Index (Maximum tolerable dose/Minimum effective dose)” value is given as 16.

The compound `CCCC(=O)OCc1c([C@@](O)(CC)C(=O)NCCN(C)C)cc2n(c1=O)Cc1c-2nc2ccc(O)cc2c1CC` [Compound C30] came in with a 50% lethal dose (LD50) at 168 h in data set [1] of 362 mg/kg. Further, the solubility in the data set “Water solubility” is above 58 mg/mL. The MTD in data set [2] stood at 200 mg/kg. In the data set on mouse leukemia L1210, the minimal effective dose is 6.25 mg/kg, the 40-day survivors is recorded as 0/6 and the “Therapeutic Index (Maximum tolerable dose/Minimum effective dose)” value came out at 32.

Regarding `CCc1c2c(nc3ccc(O)cc13)-c1cc([C@@](O)(CC)C(=O)NCCN(C)C)c(COC(=O)CCSC)c(=O)n1C2` [Compound C32], the LD50 at 168 h in data set [1] was 307 mg/kg. In addition, in the data set “Water solubility”, the solubility was above 62 mg/mL. Moreover, in data set [2], the MTD was found to be 200 mg/kg. Also, in the data set on mouse leukemia L1210, the minimal effective dose was determined as 6.25 mg/kg, the 40-day survivors is given as 0/6 and the “Therapeutic Index (Maximum tolerable dose/Minimum effective dose)” value was 32.

Compound `CCc1c2c(nc3ccc(O)cc13)-c1cc([C@@](O)(CC)C(=O)NCCN(C)C)c(COC(=O)c3ccc(F)cc3)c(=O)n1C2` [Compound C36] came in with an LD50 at 168 h in data set [1] of 477 mg/kg. In addition, the concentration in solution in the data set “Water solubility” (solubility) came to 17 mg/mL (≈ 28.2 mM). Also, the MTD in data set [2] was found to be 200 mg/kg. Moreover, in the data set with mouse leukemia L1210, the minimal effective dose worked out at 12.5 mg/kg, the 40-day survivors is listed as 0/6 and the “Therapeutic Index (Maximum tolerable dose/Minimum effective dose)” value came to 16.

`CCc1c2c(nc3ccc(O)cc13)-c1cc([C@@](O)(CC)C(=O)NCCN(C)C)c(COC(=O)c3cccc(F)c3)c(=O)n1C2` [Compound C38] showed an LD50 at 168 h in data set [1] of 421 mg/kg. Besides, the solubility in “Water solubility” came to 6 mg/mL (≈ 9.96 mM). In data set [2], the MTD worked out at 200 mg/kg. In the data set on mouse leukemia L1210, the minimal effective dose was found to be 12.5 mg/kg, the 40-day survivors is on record as 0/6 and the “Therapeutic Index (Maximum tolerable dose/Minimum effective dose)” value worked out at 16.

The record behind these values is patent US5843954A, “Camptothecin derivatives, preparations thereof and antitumor agents” (priority 1994, dated 1998).
